Test results: patent publication US20130071897A1, “METHOD FOR CONTROLLING UNDESIRABLE BYPRODUCTS FORMATION CAUSED BY CONTAMINATING ORGANISMS IN THE PRODUCTION OF ETHANOL FROM SYNGAS” (COSKATA, INC., priority 2011, published 2013)
Values joined by “and” are separate entries in the source; they are usually repeats but may differ in a detail not shown here. Equal values may be shown once.

Tests used:
Assay type in all cases: cell-based
C. carboxidivorans = experiment: Product profiles of C. carboxidivorans cultures by GC-MSD; details: 500 and 1000 ppm; 54 hour cultures
Procedure: Product profiles were determined on the C. carboxidivorans cultures that grew in the presence of compound A. A GC-MSD was performed on 54 hour cultures and product distributions were calculated based on the resultant areas of the output (See FIG. 2). In cultures with no compound A addition, the distribution of C2, C4 and C6 acids and alcohols was similar in both samples. As the compound A concentration increased the amount of C2, particularly the alcohols, increased. […] Thus, such crotonate derivatives can effectively limit the amount of butyl impurity accumulation in the fermentation zone from heteroacetogens which can compete effectively in syngas cultures with homoacetogenic bacteria.

[1] = system: Clostridium tyrobutyricum; experiment: Butyric acid by gas chromatography in Clostridium tyrobutyricum batch fermentations; details: 5 mM, duplicates A and B
Procedure: The concentration of butyric acid is determined by gas chromatography for several of the above samples at the stated points in time. The butyrate production is calculated based upon peak area calculations generated by the gas chromatograph. At 11 hours, the concentration of butyric acid for each of the controls is about 0.95 gram per liter, and the concentration of butyric acid for the samples containing 500 ppm of the inhibitor are about 0.6 gram per liter.
The concentration of butyric acid is determined by gas chromatography using the procedure set forth in Example 13. The control is reported only in Table 18.

[2] = system: Clostridium carboxydivorans; experiment: Balch tube batch growth of heteroacetogenic bacteria Clostridium carboxydivorans on fructose, optical density; set-up: key to Optical density valuation of C. carboxidivorans: +: bacterial growth to an OD of approximately 1.8; +/−: one duplicate test tube showed a + indication and the other showed an optical density of less than 0.5; details: for Optical density valuation of C. carboxidivorans: added 20 h after inoculation; for Inhibition effect for reducing butyrogen growth: summary of Examples 1-5
Procedure: Similar experiments were conducted to determine the effect of the crotonate derivatives on heteroacetogenic bacteria. Selected crotonate derivatives were tested in a series of batch experiments to determine the growth response of butyrogens to the presence of the compounds at varying concentrations. The batch experiments were all conducted by anoxically filling a 20 ml Balch tube with 5 ml of a fermentation medium having the composition given in Tables 2 and 3. The media included 0.5 v/v final concentration of a fructose substrate. For each of the crotonate concentrations tested, duplicate test tubes were prepared.
Each tube was inoculated with 0.5 ml of the heteroacetogenic bacteria Clostridium carboxydivorans. The tubes were maintained at a temperature of 37° C. At a time 20 hours after the inoculation of the bacteria different crotonate derivatives from Table 1 were added to different tubes in the amounts indicated in Table 7. This was at a time of early to mid-log phase growth. Each fermentation of the bacteria in the media at the different concentration of crotonate derivatives were allowed to progress and were monitored to determine the bacteria growth at selected intervals of time varying from approximately 20 hours to 54 hours. Growth at the different intervals was measured by reading the optical density (OD) of the fermentation liquid. Optical density was measured as described in Example 1. The ability of a tube fermentation at a particular concentration of crotonate derivative to reach a predetermined optical density was recorded in Table 7. Table 7 indicates the presence of bacterial growth to an OD of approximately 1.8 with a “+”.
Compound A was tested again in set of experiments in all respects the same as that described for Example 4 except that compound A was added to Balch tubes in the amounts indicated in Table 7 at a time 5.5 hours after the inoculation of the bacteria. This was at a time in early log phase growth. In this case the Balch tube that contained no compound A reached an OD of 2 after 29 hours or less.

SMILES | Product distribution of C2, C4 and C6 acids and alcohols (C. carboxidivorans) | Butyrate Production ([1]; 4.5 Hours) [grams per liter] | Butyrate Production ([1]; 6 Hours) | Butyrate Production ([1]; 24 Hours) | Optical density valuation of C. carboxidivorans ([2]; 100 ppm(m)) | OD of C. carboxidivorans tube fermentations ([2]; 500 and 1000 ppm added 5.5 hours after inoculation) | Optical density valuation of C. carboxidivorans ([2]; 500 ppm(m)) | Optical density valuation of C. carboxidivorans ([2]; 1000 ppm(m)) | Inhibition effect for reducing butyrogen growth [2]
CCOC(=O)C=C(C(F)(F)F)C(F)(F)F [Compound A, ethyl 4,4,4-trifluoro-3-(trifluoromethyl)crotonate] | virtually all the product observed was the C2 alcohol | 0.04 | 0.06 grams per liter and 0.05 grams per liter | 0.10 grams per liter and 0.08 grams per liter | + (bacterial growth to an OD of approximately 1.8) | ≤ 0.5 | + (bacterial growth to an OD of approximately 1.8) | + (bacterial growth to an OD of approximately 1.8) | showed inhibition effect
O=C(O)C=C(C(F)(F)F)C(F)(F)F [D, 4,4,4-trifluoro-3-(trifluoromethyl)crotonic acid] | – | – | – | – | + (bacterial growth to an OD of approximately 1.8) | – | + (bacterial growth to an OD of approximately 1.8) | +/− | showed inhibition effect
